Reference: ChEMBL document CHEMBL1201862, “PubChem BioAssay data set” (2004)
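Following 48 hours of exposure in 96-well plates, responses at five concentrations were used to interpolate endpoints linearly. Abbreviation: GI50, concentration required for 50% inhibition of growth.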 Active and inactive are the calls of the source. Rule as the data show it: active = GI50 up to about 1.1 µM and inactive = higher.

How the values were obtained:
Test in all cases: NCI-60 cell line screen, 48 h
NCI-H460 = tested on: NCI-H460
M14 = tested on: M14
SF-295 = tested on: SF-295
PC-3 = tested on: PC-3
UO-31 = tested on: UO-31
KM12 = tested on: KM12
SN12C = tested on: SN12C
UACC-62 = tested on: UACC-62
HOP-92 = tested on: HOP-92
LOX IMVI = tested on: LOX IMVI
NCI-H226 = tested on: NCI-H226
IGROV-1 = tested on: IGROV-1
BT-549 = tested on: BT-549
T47D = tested on: T47D
SW-620 = tested on: SW-620
SK-MEL-5 = tested on: SK-MEL-5
SK-OV-3 = tested on: SK-OV-3
RPMI-8226 = tested on: RPMI-8226
A549 = tested on: A549
SR = tested on: SR

| Compound | GI50 (NCI-H460) | GI50 (M14) | GI50 (SF-295) | GI50 (PC-3) | GI50 (UO-31) | GI50 (KM12) | GI50 (SN12C) | GI50 (UACC-62) | GI50 (HOP-92) | GI50 (LOX IMVI) | GI50 (NCI-H226) | GI50 (IGROV-1) | GI50 (BT-549) | GI50 (T47D) | GI50 (SW-620) | GI50 (SK-MEL-5) | GI50 (SK-OV-3) | GI50 (RPMI-8226) | GI50 (A549) | GI50 (SR) |
| --- | --- | --- | --- | --- | --- | --- | --- | --- | --- | --- | --- | --- | --- | --- | --- | --- | --- | --- | --- | --- |
| COc1cc([C@@H]2c3cc4c(cc3[C@@H](OC3OC5COC(C)OC5C(OC(=O)CN5CCN(C)CC5)C3OC(=O)CN3CCN(C)CC3)C3COC(=O)[C@@H]32)OCO4)cc(OC)c1OC(=O)CN1CCN(C)CC1 (some centres not stated) | 11.2 µM (inactive) | 55.8 µM (inactive) | 38.1 µM (inactive) | > 100 µM (inactive) | 68.9 µM (inactive) | > 100 µM (inactive) | 44.1 µM (inactive) | > 100 µM (inactive) | > 100 µM (inactive) | 36.5 µM (inactive) | 50.4 µM (inactive) | 72.3 µM (inactive) | 34.4 µM (inactive) | 71.1 µM (inactive) | 41.8 µM (inactive) | 43.5 µM (inactive) | > 100 µM (inactive) |  |  |  |
| CC(=O)O[C@H]1C(=O)O[C@@H]2C[C@H]3C(C)=CC(=O)[C@@H](O)[C@]3(C)[C@H]3[C@@]4(O)OC[C@]32[C@@H]1[C@@H](C)[C@H]4O |  | 0.0219 µM (active) | 0.0535 µM (active) | 0.02 µM (active) | 0.53 µM (active) | 0.0318 µM (active) | 0.0767 µM (active) | 0.0434 µM (active) | 0.0329 µM (active) | 0.0321 µM (active) |  | 0.0279 µM (active) | 0.0312 µM (active) | 0.0228 µM (active) | 0.0527 µM (active) | 0.0247 µM (active) | 0.524 µM (active) | 0.0286 µM (active) |  |  |
| CC1CCC2(O)C3(C)CC4(O)OC2(C1O)C1(O)C3(O)C(OC(=O)c2ccc[nH]2)C(O)(C(C)C)C41C (configuration not stated) | > 100 µM (inactive) | > 100 µM (inactive) | > 100 µM (inactive) | > 100 µM (inactive) | > 100 µM (inactive) | > 100 µM (inactive) | > 100 µM (inactive) | > 100 µM (inactive) | > 100 µM (inactive) | > 100 µM (inactive) | > 100 µM (inactive) | > 100 µM (inactive) | > 100 µM (inactive) | > 100 µM (inactive) | > 100 µM (inactive) | > 100 µM (inactive) | > 100 µM (inactive) | > 100 µM (inactive) | > 100 µM (inactive) |  |
| CCOC(=O)C1(C)CCc2sc(N)c(C#N)c21 (configuration not stated) | > 100 µM (inactive) | > 100 µM (inactive) |  | > 100 µM (inactive) | > 100 µM (inactive) | > 100 µM (inactive) | > 100 µM (inactive) | > 100 µM (inactive) | > 100 µM (inactive) |  | > 100 µM (inactive) | > 100 µM (inactive) | > 100 µM (inactive) | > 100 µM (inactive) | > 100 µM (inactive) | > 100 µM (inactive) |  | > 100 µM (inactive) | > 100 µM (inactive) |  |
| CCOc1ccc2nc3nc(O)nc(C)c3c(NCCCN(CC)CC)c2c1 | > 100 µM (inactive) | > 100 µM (inactive) | > 100 µM (inactive) | > 100 µM (inactive) | > 100 µM (inactive) | > 100 µM (inactive) | > 100 µM (inactive) | > 100 µM (inactive) | > 100 µM (inactive) | > 100 µM (inactive) | > 100 µM (inactive) | > 100 µM (inactive) | > 100 µM (inactive) | > 100 µM (inactive) | > 100 µM (inactive) | > 100 µM (inactive) | > 100 µM (inactive) |  | > 100 µM (inactive) |  |
| CCCCCCCCCCCCC/C=C(/COCC[N+](C)(C)C)OC(C)=O.CCCCCCCCCCCCCC/C(=C/OCC[N+](C)(C)C)OC(C)=O | 0.63 µM (active) | 2.5 µM (inactive) | 0.92 µM (active) | 2.08 µM (inactive) | 14.3 µM (inactive) | 1.46 µM (inactive) | 3.01 µM (inactive) | 1.74 µM (inactive) | 1.16 µM (inactive) | 0.377 µM (active) | 1.57 µM (inactive) | 1.69 µM (inactive) | 1.45 µM (inactive) |  | 2.92 µM (inactive) | 2.54 µM (inactive) | 4.63 µM (inactive) | 1.3 µM (inactive) | 1.71 µM (inactive) | 1.57 µM (inactive) |
| CSc1scc2c1/C(=N/NC(N)=O)CCC2 | 94.4 µM (inactive) | > 100 µM (inactive) | 60.5 µM (inactive) | 93.5 µM (inactive) | > 100 µM (inactive) | 86.1 µM (inactive) | > 100 µM (inactive) | > 100 µM (inactive) | 2.34 µM (inactive) | > 100 µM (inactive) | 22.4 µM (inactive) |  | 80 µM (inactive) | > 100 µM (inactive) | > 100 µM (inactive) | 41.1 µM (inactive) | > 100 µM (inactive) | 88.1 µM (inactive) | 78.3 µM (inactive) |  |
| CCCCOC(=O)c1cc(C(=CCC[C@H]2CC[C@@]3(C)[C@@H](CC[C@@H]4[C@@H]3CC[C@]3(C)[C@@H](C(C)CCCC(C)C)CC[C@@H]43)C2)c2cc(Cl)c(O)c(C(=O)OCCCC)c2)cc(Cl)c1O (some centres not stated) | > 50 µM (inactive) |  |  | > 50 µM (inactive) |  | > 50 µM (inactive) | > 50 µM (inactive) | > 50 µM (inactive) | > 50 µM (inactive) | > 50 µM (inactive) | > 50 µM (inactive) | > 50 µM (inactive) | > 50 µM (inactive) | > 50 µM (inactive) | > 50 µM (inactive) | > 50 µM (inactive) |  | > 50 µM (inactive) |  |  |
